According to patent publication US11047012B2, “Method for detecting the risk and prognosis of adult-onset Still's disease” (Taichung Veterans General Hospital, priority 2018, dated 2021):

How the values were obtained:
[1] = tested on: peripheral blood mononuclear cells derived from the patients with AOSD; test: TLR ligand stimulation of peripheral blood mononuclear cells, intracellular miR-134 by QRT-PCR; type: cell-based, human
Experimental: (§1) The miRNA expressions in a sample were detected using the TaqMan MicroRNA detection kit (Applied Biosystems, Thermo Fisher Scientific, USA) and QRT-PCR was performed in the StepOne Plus real-time PCR system. Small nuclear RNA (hereinafter referred to as RUN6) and synthetic cel-miR-39 (hereinafter referred to as cel-miR-39 cel-miR-39) were respectively used as an internal control gene in cells and plasma. The multiple expression of the target gene was obtained by calculating the average expression of the target gene relative to the internal control gene in the sample by comparative threshold cycle (Ct) method, and evaluated by 2^−ΔΔCt, where ΔΔCt is the (CtmiRNAsgene−CtRnu6/cel-miR-39) of the patient from which the average (CtmiRNAs gene−CtRnu6/cel-miR-39) of the internal control gene is subtracted.
(§2) Peripheral blood mononuclear cells, human monocyte cell line U937 (ATCC CRL1593, hereinafter referred to as U937 cell) and THP-1 cells (ATCC TIB-202) isolated from the subject were respectively cultured in RPMI medium 1640 (Gibco, Thermo Fisher Scientific, USA) supplemented with 10% fetal bovine serum, 1× non-essential amino acids, 100 unit/ml penicillin and 100 unit/ml streptomycin in 5% carbon dioxide at 37° C.
Peripheral blood mononuclear cells (5×10^5 cells) derived from the subjects were stimulated with different TLR ligands. Finally, the intracellular expression level of miR-134 was measured with the TaqMan MicroRNA test kit.
Following the process as described in Example 8, the intracellular expressions of miR-134 and IL-18BP mRNA in the TLR3 ligand-stimulated peripheral blood mononuclear cells derived from patients with AOSD and healthy subjects were detected. The correlation between the IL-18BP and IL-18 expressions and the miR-134 expression was analyzed.

THP-1 cells = test: poly (I:C) stimulation of THP-1 cells, miR-134 expression; type: cell-based, human; details: 24 hours after stimulation, FIG. 5B
Experimental: as §1, §2
Further, the THP-1 cells were treated with the TLR3 ligand poly (I:C).

Substance: polyriboinosinic:polyribocytidylic acid [poly(I:C)]
- miR-134 expression level in the cells ([1]; PBMC from patients with AOSD, TLR3 ligand poly(I:C) 50 μg/ml, FIG. 5A): 3.81±0.09 folds
- expression level of miR-134 ([1]; TLR3 ligand-stimulated PBMC from patients with AOSD, FIG. 10A): increased
- expression level of IL-18BP mRNA ([1]; TLR3 ligand-stimulated PBMC from patients with AOSD, FIG. 10B): reduced
- expression of miR-134 (highest value) (THP-1 cells): 1.92±0.11 folds
